In patent US20230124589A1, “Ivacaftor Glycosides, Methods Of Making, And Uses Thereof In Treating Cystic Fibrosis” (DoubleRainbow Biosciences Inc., priority 2020, published 2023):
≈ marks a conversion by molar mass, not a printed value.

Tests used:
[1] = background statement, no method given; cited from earlier work
[2] = Water solubility (excess compound suspended in distilled water, supernatant measured by HPLC); type: physicochemical
Description: The water solubility of ivacaftor and ivacaftor-17-O-D-glucoside was investigated by suspending excess amounts of the two compounds in 200 μl of distilled water in a microcentrifuge tube at 25° C. for 12 h. Afterwards, each sample was centrifuged at 12,000×g for 20 min. The supernatant of each sample was then filtered through a 0.45-μm membrane filter and the concentration of the compound in the supernatant, which is defined as the water-soluble component, was measured by its absorbance at 300 nm using HPLC, and its absolute solubility was calculated in reference to the concentration-absorbance standard curve.

Row | SMILES | solubility in water [1] | solubility at 12 h ([2]; 25 °C, water, thermodynamic from solid) | water solubility, times higher than ivacaftor ([2]; distilled water, 25° C., 12 h, relative to ivacaftor) | water solubility ([2]; distilled water, 25° C., 12 h, supernatant filtered 0.45-μm, absorbance at 300 nm by HPLC)
1 | CC(C)(C)c1cc(C(C)(C)C)c(NC(=O)c2c[nH]c3ccccc3c2=O)cc1O [ivacaftor, Ivacaftor] | < 1 µg/mL | 0.1 µg/mL (≈ 0.255 µM) | – | –
2 | CC(C)(C)c1cc(C(C)(C)C)c(OC2O[C@H](CO)[C@@H](O)[C@H](O)[C@H]2O)cc1NC(=O)c1c[nH]c2ccccc2c1=O (stereo partly drawn) [ivacaftor-17-O-D-glucoside] | – | – | 14,550 times | 1,455 mg/L
